Broadly, the IC50 is the concentration needed to halve the response being measured. One may read the AUC as concentration integrated over time. The low end stands for low exposure, the high end for high exposure. Usually half-life stands for how long it takes for the measured level to halve. Read a low half-life as rapid decline. As a reminder, the MRT is a mean duration of stay, worked out from the concentration-time curve. Usually Cmax stands for the maximum level reached in the sampled fluid or tissue. Usually CL/F stands for clearance divided by bioavailability, as obtained after extravascular dosing. Usually NOAEL stands for the highest tested level that showed no adverse finding.

The source of these data is ChEMBL document CHEMBL3817824, “Synthesis and biological evaluation of new [1,2,4]triazolo[4,3-a]pyridine derivatives as potential c-Met inhibitors” (Bioorg Med Chem, 2016).

Data set [1] is described as follows: Cytotoxicity against human SNU5 cells assessed as reduction in cell survival incubated for 3 days by cell titre-glo assay. The note with it: SNU-5, 72 h.
Data set [2] in a line: AUC in Sprague-Dawley rat at 5 mg/kg. The format is ADME, organism-based. The note with it: in vivo.
A short description of data set [3]: Half life in Sprague-Dawley rat at 5 mg/kg. The format is ADME, organism-based. The note with it: in vivo.
A short description of data set [4]: Mean residence time in Sprague-Dawley rat at 5 mg/kg. The format is ADME, organism-based. Conditions: in vivo.
Data set [5] in a line: Cmax in Sprague-Dawley rat at 5 mg/kg. Conditions: in vivo. More on the design: dose 5 mg/kg. The class given is ADME, organism-based.
Data set [6] can be described thus: Apparent volume of distribution during terminal phase in Sprague-Dawley rat at 5 mg/kg. The class given is ADME, organism-based. Conditions: in vivo, read-out: Vz/F.
Data set [7] in a line: Apparent oral clearance in Sprague-Dawley rat at 5 mg/kg. The format is ADME, organism-based. Conditions: in vivo.
The nature of data set [8]: Toxicity in ig dosed nude BALB/c mouse administered as qd treated for 28 days followed by rehabilitation for 28 days. The class given is organism-based. Conditions: in vivo, po.
The nature of data set [9]: Acute toxicity in ig dosed nude BALB/c mouse administered as qd measured for 14 days. The format is organism-based. Conditions: in vivo, po.
Data set [10] in a line: Antitumor activity against human MKN45 cells xenografted in nude BALB/c mouse assessed as inhibitory rate at 10 mg/kg, ig measured twice every week. The format is functional. The note with it: MKN-45, po, read-out: TGI.
For data set [11], the system named is Mus musculus. The experiment in a line: Toxicity in nude BALB/c mouse assessed as effect on body weight at 15 to 225 mg/kg, ig qd for treated for 28 days followed by rehabiliation for 28 days measured during compound dosing and rehabilitation period relative to vehicle control. The format is organism-based. The note with it: in vivo, po, 672 h.
Data set [12] has as its system NCI-H1993. The experiment in a line: Antitumor activity against human NCI-H1993 cells xenografted in nude BALB/c mouse assessed as inhibitory rate at 30 mg/kg, ig measured twice every week. Conditions: NCI-H1993, po, read-out: TGI. The class given is functional. In general terms: A xenograft is tissue or cells of one species grown in another, often human tumour cells in immunodeficient mice.

Data set [13] is described as follows: Antitumor activity against human MKN45 cells xenografted in nude BALB/c mouse assessed as inhibitory rate at 60 mg/kg, ig measured twice every week. The note with it: MKN-45, po, read-out: TGI. The class given is functional.
For data set [14], the system named is NCI-H1993. Kind of data set: Antitumor activity against human NCI-H1993 cells xenografted in nude BALB/c mouse assessed as inhibitory rate at 60 mg/kg, ig measured twice every week. The class given is functional. The note with it: NCI-H1993, po, read-out: TGI.
The subject of data set [15] is Mus musculus. Kind of data set: Acute toxicity in nude BALB/c mouse assessed as clinical pathologies at 300 to 600 mg/kg, ig qd after 28 days. The format is organism-based. Conditions: in vivo, po, 672 h.
For data set [16], the system named is Mus musculus. Kind of data set: Toxicity in nude BALB/c mouse assessed as clinical pathologies at 15 to 225 mg/kg, ig qd for treated for 28 days followed by rehabiliation for 28 days measured on day 56 relative to vehicle control. The note with it: in vivo, po, 672 h. The format is organism-based.
Data set [17] concerns NCI-H1993. The experiment in a line: Antitumor activity against human NCI-H1993 cells xenografted in nude BALB/c mouse assessed as inhibitory rate at 10 mg/kg, ig measured twice every week. The class given is functional.
Data set [18] can be described thus: Antitumor activity against human MKN45 cells xenografted in nude BALB/c mouse assessed as inhibitory rate at 30 mg/kg, ig measured twice every week. Conditions: MKN-45, po, read-out: TGI. The class given is functional.
In data set [19] the target is Hepatocyte growth factor receptor (Homo sapiens, UniProt P08581). The experiment in a line: Inhibition of c-Met (unknown origin) incubated for 1 hr by spectrophotometric analysis.
The test system of data set [20] is Huh-7. Kind of data set: Inhibition of ERK phosphorylation in human HuH7 cells at 100 to 1000 nM after 6 to 24 hrs by Western blot analysis. The class given is cell-based. In general terms: In western blotting, separated proteins are transferred to a membrane and probed.
Data set [21] concerns the target RAC-alpha serine/threonine-protein kinase (Homo sapiens, UniProt P31749). Conditions: Huh-7, 100 to 1000 nM.
Description: Inhibition of AKT phosphorylation in human HuH7 cells at 100 to 1000 nM after 6 to 24 hrs by Western blot analysis
In data set [22] the test system is MKN-45. Kind of data set: Antitumor activity against human MKN45 cells xenografted in ig dosed nude BALB/c mouse measured twice every week. The format is functional, organism-based.
For data set [23], the system named is NCI-H1993. The experiment in a line: Antitumor activity against human NCI-H1993 cells xenografted in ig dosed nude BALB/c mouse measured twice every week. The class given is functional, organism-based.
Data set [24] is described as follows: Cytotoxicity against human MHCC97L cells assessed as reduction in cell survival incubated for 3 days by cell titre-glo assay. The class given is functional, cell-based. Conditions: 72 h.
For data set [25], the system named is NCI-H1975. Kind of data set: Cytotoxicity against human NCI-H1975 cells assessed as reduction in cell survival incubated for 3 days by cell titre-glo assay. The class given is functional, cell-based. The note with it: NCI-H1975, 72 h.
Data set [26] is described as follows: Cytotoxicity against human MHCC97H cells assessed as reduction in cell survival incubated for 3 days by cell titre-glo assay. The format is functional, cell-based. The note with it: 72 h.
In data set [27] the test system is NCI-N87. Kind of data set: Cytotoxicity against human NCI-N87 cells assessed as reduction in cell survival incubated for 3 days by cell titre-glo assay. Conditions: NCI-N87, 72 h. The format is functional, cell-based.
Data set [28] deals with NCI-H1993. The experiment in a line: Cytotoxicity against human NCI-H1993 cells assessed as reduction in cell survival incubated for 3 days by cell titre-glo assay. The class given is functional, cell-based. Conditions: NCI-H1993, 72 h.
A short description of data set [29]: Cytotoxicity against human HuH7 cells assessed as reduction in cell survival incubated for 3 days by cell titre-glo assay. The format is functional, cell-based. Conditions: Huh-7, 72 h.
Data set [30] can be described thus: Cytotoxicity against human MKN45 cells assessed as reduction in cell survival incubated for 3 days by cell titre-glo assay. The class given is functional, cell-based. Conditions: MKN-45, 72 h.
Data set [31] concerns A549. Kind of data set: Cytotoxicity against human A549 cells assessed as reduction in cell survival incubated for 3 days by cell titre-glo assay. The format is functional, cell-based. Conditions: A549, 72 h.
A short description of data set [32]: Cytotoxicity against human HCCLM3 cells assessed as reduction in cell survival incubated for 3 days by cell titre-glo assay. The format is functional, cell-based. The note with it: HCCLM3, 72 h.

Calls of active or inactive are those of the source. The calls are words filed in the database; no cut-off is given here. Bounds are passed on as bounds.

Take `COCCN1C(=O)COc2c1cnc1ccc(Sc3nnc4c(F)cc(-c5cnn(C)c5)cn34)cc21`: the IC50 in [1] is 4.5 nM.

For `Cn1cc(-c2ccc3nnc(Sc4ccc5ncc6c(c5c4)OCC(=O)N6)n3c2)cn1`, the IC50 in [1] worked out at 85.8 nM.

Regarding `CN1C(=O)COc2c1cnc1ccc(Sc3nnc4ccc(-c5cnn(C)c5)cn34)cc21`, the IC50 in data set [1] was found to be 3 nM.

`Cn1cc(-c2ccc3nnc(C(F)(F)c4ccc5ncccc5c4)n3n2)cn1` [JNJ-38877605]: the AUC in data set [2] stood at 17300 ng·h/mL. The half-life in [3] is 2.97 h. In data set [4], this compound came in with an MRT of 4.9 h. The compound also had a Cmax in data set [5] of 2370 ng/mL. Moreover, in [6], the Vd/F was found to be 1.48 L/kg. Moreover, the CL/F in data set [7] came to 5.81 mL/min/kg.

Regarding `Cn1cc(-c2cc(F)c3nnc(Sc4ccc5ncc6c(c5c4)OCCN6C(=O)C4CC4)n3c2)cn1`, the IC50 in data set [1] amounted to 12.3 nM.

Take `COCCN1C(=O)COc2c1cnc1ccc(Sc3nnc4ccc(-c5cnn(C)c5)cn34)cc21`: the IC50 in [1] stood at 19.1 nM.

Turning to `Cn1cc(-c2cc(F)c3nnc(Sc4ccc5ncc6c(c5c4)OC[C@H]4CCCN64)n3c2)cn1`, the IC50 in [1] was 29.2 nM.

In [8], `CN1C(=O)COc2c1cnc1ccc(Sc3nnc4c(F)cc(-c5cnn(C)c5)cn34)cc21.CS(=O)(=O)O` registered an NOAEL at 672 h of 225 mg/kg/day. The same compound returned an NOAEL at 336 h in data set [9] of 600 mg/kg/day. For the same compound, the inhibition in vivo at 10 mg/kg was found to be 29.5% in [10] and 24.4% in data set [17] (NCI-H1993, po, read-out: TGI). The Activity result in [11], in data set [15] and in data set [16] was “Non-toxic” throughout. Also, the inhibition in vivo at 30 mg/kg in data set [12] came out at 19.5%; in data set [18] it was 34.2%. Further, the inhibition in vivo at 60 mg/kg was found to be 61.4% in data set [13] and 24.9% in [14]. The CL/F in [7] came to 0.68 mL/min/kg.

With `CN1C(=O)COc2c1cnc1ccc(Sc3nnc4c(OC(F)F)cc(-c5cnn(C)c5)cn34)cc21`, the IC50 in [19] and in data set [1] was > 1000 nM in each case.

As for `Cn1cc(-c2cc(F)c3nnc(Sc4ccc5ncc6c(c5c4)OC[C@@H]4CCCN64)n3c2)cn1`, the IC50 in data set [1] was determined as 327 nM.

For `CN1C(=O)COc2c1cnc1ccc(Sc3nnc4c(F)cc(-c5cnn(C)c5)cn34)cc21`, the inhibition entry in data set [20] and in data set [21] was “inactive” each time. For the same compound, the TGI entry in data set [22] and in data set [23] was “Dose-dependent effect” in each case.

On to `Cn1cc(-c2ccc3nnc(Sc4ccc5ncccc5c4)n3n2)cn1` [SGX-523], for which the IC50 is 18 nM in data set [24]; > 10000 nM in data set [25]; 11 nM in [26]; 3.9 nM in data set [1]; > 10000 nM in data set [27]; 25 nM in data set [28]. The IC50 in [29] is > 10000 nM; in data set [30], 15 nM; in [31], > 10000 nM; in data set [32], 24 nM. In data set [10], the inhibition in vivo at 10 mg/kg amounted to 11.2%. In addition, the TGI result in data set [17] is “inactive”.

`Cn1cc(-c2cc(F)c3nnc(Sc4ccc5ncc6c(c5c4)OCC(=O)N6)n3c2)cn1`: the IC50 in [1] was 17.8 nM.
